# Laboratory results published in PMC6005845 (Frontiers in Cardiovascular Medicine, 2018).
# Like-named read-outs stand apart in the source and are kept apart here.
# Legend:
# [1] = tested on: CML; details: cited from earlier work
# [2] = tested on: APOE*3Leiden.CETP mice; test: Hepatic lipid content by HPTLC; assay type: in vivo; details: 16 weeks
# Method: (§1) Pouwer et al Supplementary material
# (§2) HDL-C was measured after precipitation as described previously20. The distribution of […]
# (§3) protein liquid chromatography (FPLC)9. The inflammatory markers SAA, E-selectin and MCP- […]
# (§4) according to the manufacturer’s instruction. Plasma ALT and AST were determined using a […]
# (§5) group at 2 and 15 weeks18.
# (§6) Straubenhardt, Germany).21
# (§7) BAL and urinary albumin:creatinin […]
# (§8) catheter to collect broncho-alveolar lavage (BAL) fluid. Protein and albumin content in BAL […]
# (§9) the mouse albumin ELISA kit (ALPCO, Salem, USA). Urinary albumin and creatinin levels […]
# (§10) kit (Exocell, Philadelphia, USA) according to manufacturer’s instruction.
# [3] = tested on: APOE*3Leiden.CETP mice; test: Plasma cholesterol, triglycerides and HDL-C in the atherosclerosis study; assay type: in vivo; details: for reduction of average plasma cholesterol compared to control: p < 0.001; for change of HDL-C vs control: at 16 weeks of treatment
# Method: Pouwer et al Supplementary material plasma lipids and a minimal effect of treatment of 30%, resulting in 15 animals per group.
# Animal experiments were approved by the Institutional Animal Care and Use Committee of The Netherlands Organization for Applied Research under registration number 3557. […]
# Biochemical analyses and blood pressure
# EDTA plasma samples were collected throughout the study. Plasma cholesterol and triglycerides were determined every 4 weeks using enzymatic kits (Roche/Hitachi) according […]
# as §2, §3, §4
# group at 2 and 15 weeks18. […]
# [4] = tested on: APOE*3Leiden.CETP mice; test: Plaque composition and lesion stability index in severe (type IV-V) lesions; assay type: in vivo; details: 16 weeks
# Method: The macrophage and necrosis content were quantified as factors that decrease plaque stability, and smooth muscle cell area in the cap of the lesions and collagen as factors that improve plaque stability ([17, 35, 36]) (Figure 6A). […]
# µm thick with intervals of 50 µm) were taken and mounted on AAS-coated slides. These sections were stained with hematoxylin-phloxine-saffron (HPS) for histological analysis. For each mouse, atherosclerosis was measured in 4 subsequent cross sections. Each section consisted of 3 segments. The average total lesion area per cross section was then calculated20
# 22. For determination of lesion severity the lesions were classified into five categories according to the American Heart Association classification 23: 0) no lesion I) early fatty streak, II) regular fatty streak, III) mild plaque, IV) moderate plaque, and V) severe plaque. The percentage of each lesion type was calculated, where type I-III lesions were classified as mild lesions and type IV-V lesions were classified as severe lesions 20 22. In the aortic root, lesion composition was determined for the severe lesions (type IV -V) as a percentage of lesion area after immunostaining with anti-human alpha-actin (1:400; PROGEN Biotechnik GmbH, Germany) for smooth muscle cells (SMC), and anti -mouse Mac-3 (1:50; BD Pharmingen, the Netherlands) for macrophages followed by Sirius Red staining. After Sirius Red staining for collagen, color intensity was determined in ImageJ and the used threshold was confirmed by evaluation of the sections under polarized light 24. Necrotic area and cholesterol clefts were measured after HPS staining13 20 22. Lesion stability index was calculated as described pre viously13 20. […]
# [5] = tested on: factor VIIa; test: Factor VIIa activity in plasma; assay type: in vivo, APOE*3Leiden.CETP mice; details: 30 mg/kg QD, at 4 weeks, p < 0.001
# Description: as §1
# (§11) Dickinson, Franklin Lakes, New Jersey, USA). After 12 weeks of treatment, peripheral blood
# (§12) CD11b+/Ly6Chigh monocytes. The following conjugated monoclonal antibodies, all from
# (§13) Coagulation factor VII and VIIa
# (§14) (Diagnostica Stago Inc. Parsippany, N J). For the determination of total clotting FVII an one
# (§15) Histological assessment of lung morphology and atherosclerosis
# (§16) The caudal lung was cross
# (§17) direction of the aortic arch.
# [6] = tested on: E-selectin; test: Plasma E-selectin ELISA; assay type: in vivo, APOE*3Leiden.CETP mice; details: after 16 weeks of treatment
# Description: Pouwer et al Supplementary material […]
# The inflammatory markers SAA, E-selectin and MCP-
# according to the manufacturer’s instruction. […]
# [7] = QD, cited from earlier work
# [8] = for Body weight / Food intake: after 16 weeks; for Food intake: per cage
# Description: Female APOE*3Leiden.CETP transgenic mice (9 to 14 weeks of age) from the SPF breeding stock at TNO-Metabolic Health Research (TNO-Leiden) were used in this study. Females were used because they are more responsive to dietary cholesterol and fat than males. APOE*3Leiden females have a higher VLDL production ([20]) than males resulting in higher plasma total cholesterol (TC) and triglyceride (TG) levels and more pronounced development of atherosclerosis ([21, 22]). […] Body weight, food intake and clinical signs of behavior were monitored regularly during the study. Animal experiments were approved by the Institutional Animal Care and Use Committee of The Netherlands Organization for Applied Research under registration number 3557.
# [9] = tested on: APOE*3Leiden.CETP mice; test: Lung vascular integrity: histology, wet/dry weight ratio, protein in BAL fluid; assay type: in vivo
# Method: as §1, §2, §3, §4, §5, §6, §7, §8, §9, §10
# Dickinson, Franklin Lakes, New Jersey, USA). After 12 weeks of treatment, peripheral blood […]
# CD11b+/Ly6Chigh monocytes. The following conjugated monoclonal antibodies, all from […]
# as §13
# (Diagnostica Stago Inc. Parsippany, N J). For the determination of total clotting FVII an one […]
# Histological assessment of lung morphology and atherosclerosis […]
# The caudal lung was cross […]
# as §17
# [10] = tested on: factor VII; test: Total factor VII coagulant activity in plasma; assay type: in vivo, APOE*3Leiden.CETP mice
# Description: as §1, §11, §12, §13, §14, §15, §16, §17
smiles,measurement,setting,value
"Cc1ccc(NC(=O)c2ccc(CN3CCN(C)CC3)cc2)cc1Nc1nccc(-c2cccnc2)n1 [Imatinib, imatinib]",relapses in treated patients,[1],up to 17%
same,change of hepatic cholesterol ester content vs control,"[2]; 150 mg/kg BID, p = 0.001",−30%
same,reduction of average plasma cholesterol compared to control,"[3]; 150 mg/kg BID, 16 week study",69%
same,reduction of average plasma triglyceride levels compared to control,"[3]; 150 mg/kg BID, 16 week study, p = 0.019",36%
same,increase of collagen content of severe lesions vs control,"[4]; 150 mg/kg BID, p = 0.004",47%
same,change of αSMC content vs control,"[4]; 150 mg/kg BID, p = 0.050 (tended to increase)",+38%
same,collagen content (percentage of total plaque area),"[4]; 150 mg/kg BID, type IV-V lesions",62 ± 17%
"Cc1cn(-c2cc(NC(=O)c3ccc(C)c(Nc4nccc(-c5cccnc5)n4)c3)cc(C(F)(F)F)c2)cn1 [Nilotinib, nilotinib]",increase of the activity of FVIIa in plasma vs control,[5],82%
same,E-selectin,[6]; 10 mg/kg QD,79 ± 23 ng/mL
same,E-selectin,[6]; 30 mg/kg QD,99 ± 17 ng/mL
same,effect on plasma lipid levels,"[3]; 10 and 30 mg/kg QD, 16 week study, vs control",no significant effect
same,AUC0–24,"[7]; CML-patients, repeated dose, dose 400–1,200 (mg)",36000 ± 11800 ng·h/mL
same,AUC0–24,"[7]; healthy subjects, single, dose 400 (mg)",14700 ± 5000 ng·h/mL
same,change of collagen content vs control,"[4]; 10 mg/kg, p = 0.003",−32%
same,change of lesion stability index vs control,"[4]; 10 mg/kg, p = 0.003",−43%
"Cc1ccc(C(=O)Nc2ccc(CN3CCN(C)CC3)c(C(F)(F)F)c2)cc1C#Cc1cnc2cccnn12 [Ponatinib, ponatinib]",mice that died during blood pressure measurements,"[8]; 3 mg/kg QD, t = 15 weeks",Two
same,Body weight,[8]; 3 mg/kg,22.5 ± 2.3 gram
same,Food intake,[8]; 3 mg/kg,2.4 gram/mouse/day
same,Body weight,[8]; 10 mg/kg,22.3 ± 2.8 gram
same,Food intake,[8]; 10 mg/kg,2.3 gram/mouse/day
same,decrease of the amount of protein in BAL fluid,"[9]; 3 mg/kg QD, week 16, p = 0.029",51%
same,decrease of the amount of protein in BAL fluid,"[9]; 10 mg/kg QD, week 16, p = 0.041",47%
same,change of total factor VII coagulant activity (FVII) in plasma vs control,"[10]; 3 mg/kg QD, after 12 weeks, p = 0.07",+28%
same,change of total factor VII coagulant activity (FVII) in plasma vs control,"[10]; 10 mg/kg QD, after 4 weeks, p < 0.001",+265%
same,change of hepatic cholesterol ester content vs control,"[2]; 3 mg/kg QD (low dose), p < 0.001",−49%
same,change of hepatic triglyceride content vs control,"[2]; 3 mg/kg QD (low dose), p = 0.048",−32%
same,change of hepatic cholesterol ester content vs control,"[2]; 10 mg/kg QD (high dose), p < 0.001",−61%
same,change of hepatic triglyceride content vs control,"[2]; 10 mg/kg QD (high dose), p = 0.005",−43%
same,change of hepatic free cholesterol content vs control,"[2]; 10 mg/kg QD, p = 0.007",−21%
same,change of HDL-C vs control,"[3]; 3 mg/kg QD (low dose), p = 0.003",−30%
same,reduction of average plasma cholesterol compared to control,"[3]; 3 mg/kg QD, 16 week study",37%
same,change of HDL-C vs control,"[3]; 10 mg/kg QD (high dose), p = 0.016",−25%
same,reduction of average plasma cholesterol compared to control,"[3]; 10 mg/kg QD, 16 week study",44%
same,AUC0–24,"[7]; CML-patients, repeated dose, dose 15–60 (mg)",1300 ng·h/mL
same,AUC0–24,"[7]; CML-patients, single, dose 60 (mg)",700 ± 400 ng·h/mL
same,effect on plaque stability,[4]; 3 mg/kg,without affecting plaque stability
same,change of necrotic core content vs control,"[4]; 3 mg/kg, p = 0.001",−58%
